# In US10858357B2, “Water-soluble myosin 2 inhibitors for the treatment of neurological, neuropathic or psychiatric diseases” (PARIS SCIENCES ET LETTRES-QUARTIER LATIN, priority 2016, dated 2020):
# Like-named read-outs stand apart in the source and are kept apart here.
# Assays:
# zebrafish embryos = assay: Zebrafish embryo toxicity test; format: in vivo, zebrafish (Danio rerio)
# Experimental: Transgenic Tg(−8.0cldnb:lynEGFP)^zf106 (cldnb:gfp) (Haas, P. & Gilmour, D., Developmental Cell 10, 2006, pp 673-680) zebrafish (Danio rerio) were maintained in the animal facility of Eötvös Loránd University. For the experiments investigating the skeletal and heart muscle of zebrafish, 6 dpf embryos were used. For cytotoxicity assays, 2 dpf embryos were dechorionated and placed in E3 medium (5 mM NaCl, 0.33 mM MgCl2, 0.33 mM CaCl2 and 0.17 mM KCl) complemented with the inhibitor in the indicated concentrations.578 PCT
# In order to test the cytoxicity of neurelaxin-A in a live animal model, zebrafish embryos were treated with the inhibitor at different concentrations and their development was followed for 72 hours (FIG. 4d).
# HeLa cells = assay: HeLa wound healing (motility) assay; format: cell-based, human; conditions: 20 μM, after 24 h, uncoated glass; control 30.6±5.4%
# Experimental: For wound healing assays, 200 μl of HeLa cells were plated on 35 mm borosilicate glass imaging dishes at 300,000 cells/ml concentrations and incubated for 24 hours. Prior to wounding, cells were incubated in 20 μM of neurelaxin-A for an hour. After one hour, scratches were made with pipette tips in monolayer cultures and the motility of cells for occupying the wound was monitored for 24 hours with a Foculus Digital Camera (IEEE1394). Analysis of cell motility was carried out by ImageJ, by measuring the distance between two lines fitted on the two sides of the approaching cell edges created by the pipette tips.
# To test the effect of neurelaxin-A on the motility of HeLa cells on uncoated glass surface, wound-healing assays were carried out in the absence and in the presence of 20 μM concentrations of the inhibitor.
# After 24 h, the percent of migration was measured for each sample. The control corresponds to a sample in the absence of inhibitor.
# [1] = system: embryonic rat hippocampal neurons; assay: Cannabinoid (WIN55,212-2)-induced growth cone retraction; format: cell-based; conditions: 100 μM pre-treatment, WIN55,212-2 100 nM
# Experimental: Embryonic rat hippocampal neurons were isolated from 18-day-old embryo and cultured on poly-D-lysine coated dish in Neurobasal medium complemented with B27, FBS and glutamax for 6 days and transfected by using Lipofectamine 2000 with DNA codig for LifeAct-mCherry and CB1R-CFP.
# The growth of neurites were monitored by fluorescent miscroscopy after the addition of different pre-treatment doses of neurelaxin-A at 20 minutes, followed 20 minutes later by the addition of 100 nM of the synthetic cannabinoid WIN55,212-2 as described in Roland et al, 2014.
# [2] = system: HeLa Kyoto H2B-mCherry eGFP-α-tubulin cells; assay: Inhibition of cytokinesis / cell growth of HeLa cells; format: cell-based, human; conditions: 25 μM, 3rd day
# Experimental: For cell growth assays, HeLa Kyoto H2B-mCherry eGFP-α-tubulin cells were grown on an eight-chambered Lab-Tek borosilicate cover glass system, with the initial cell concentration of 100,000 cells/ml. As soon as the cells attached to the surface, they were treated with 0, 2, 5, 10, 25 or 50 μM concentrations of neurelaxin-A. Cells were grown for three days in the presence of the indicated inhibitor concentrations and cell numbers were quantified each day. The final vol/vol % of DMSO in all experiments was 0.1. Data analysis was carried out by Fiji software. On the third day of the experiment, multinuclear cells were visualized by using a Zeiss LSM 710 with a Plan Apo 20×/0.8 objective.
# Another important phenotypic effect of non-muscle myosin 2 inhibition is the blocking of cytokinesis and consequently, the increasing number of multinucleated cells and the relatively low total cell number in human cancer cell cultures (Straight et al. Science, 2003, 299 (5613), pp 1743-1747). Therefore, the ratio of multinuclear cells and total cell number of HeLa cells was measured in time at different concentrations of neurelaxin-A (FIGS. 3F and 3G).
# Cells incubated in different concentrations of the inhibitors were counted on each day for three days. […] In parallel with this phenomenon, the ratio of multinuclear cells increased with increasing inhibitor concentration.
# [3] = biological target: T1, rabbit skeletal muscle myosin S1 (SkS1) (Oryctolagus cuniculus, UniProt Q28641); assay: Steady state MgATPase, NADH-coupled assay, SkS1; format: biochemical
# T1 construct: SkS1 (rabbit skeletal S1 fragment); from tissue; host or cells: rabbit skeletal muscle
# T1 sequence (Q28641 1-843 limits assumed): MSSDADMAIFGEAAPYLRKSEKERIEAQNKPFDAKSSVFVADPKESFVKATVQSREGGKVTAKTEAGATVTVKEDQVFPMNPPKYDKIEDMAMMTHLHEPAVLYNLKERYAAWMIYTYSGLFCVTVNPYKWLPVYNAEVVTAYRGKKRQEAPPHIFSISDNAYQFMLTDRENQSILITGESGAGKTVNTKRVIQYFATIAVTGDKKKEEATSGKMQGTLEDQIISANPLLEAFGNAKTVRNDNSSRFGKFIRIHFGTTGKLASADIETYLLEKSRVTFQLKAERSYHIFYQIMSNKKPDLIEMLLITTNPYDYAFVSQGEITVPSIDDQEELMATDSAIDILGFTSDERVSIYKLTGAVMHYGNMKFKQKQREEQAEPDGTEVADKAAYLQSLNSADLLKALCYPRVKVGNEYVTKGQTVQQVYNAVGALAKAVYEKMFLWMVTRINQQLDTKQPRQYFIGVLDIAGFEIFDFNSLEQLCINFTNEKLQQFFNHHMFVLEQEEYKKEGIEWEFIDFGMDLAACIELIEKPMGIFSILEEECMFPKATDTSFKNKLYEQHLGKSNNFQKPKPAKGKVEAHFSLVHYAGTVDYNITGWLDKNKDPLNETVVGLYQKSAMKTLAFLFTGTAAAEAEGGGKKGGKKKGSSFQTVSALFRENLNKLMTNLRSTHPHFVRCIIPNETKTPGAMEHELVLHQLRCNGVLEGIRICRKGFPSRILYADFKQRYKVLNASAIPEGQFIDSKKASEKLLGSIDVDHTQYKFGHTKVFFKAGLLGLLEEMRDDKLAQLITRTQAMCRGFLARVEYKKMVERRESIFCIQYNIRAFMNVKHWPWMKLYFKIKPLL
# T1 sequence (P02602 whole entry partner, the tested form may be a part): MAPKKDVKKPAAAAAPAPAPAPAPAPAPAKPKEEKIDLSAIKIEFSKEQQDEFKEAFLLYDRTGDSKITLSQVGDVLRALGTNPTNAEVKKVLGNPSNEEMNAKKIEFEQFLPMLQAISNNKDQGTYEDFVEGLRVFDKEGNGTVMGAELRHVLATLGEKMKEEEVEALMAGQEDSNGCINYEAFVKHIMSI
# Experimental: MgATPase activities of 500 nM (for basal ATPase) or 50 nM (for actin activated ATPase) SkS1 (rabbit skeletal S1 fragment) 23 and 1 μM (for basal ATPase) or 300 nM (for actin activated ATPase) DdMD were measured at increasing concentrations of neurelaxin-A in the absence or in the presence of 45 μM actin for SkS1 or 15 μM actin for DdMD. Measurements were carried out using a pyruvate kinase/lactate dehydrogenase coupled assay (NADH-coupled assay) (Kovacs M. et al., J. Biol. Chem. 2004, 279 (34), pp 35557-35563) at 25° C. or 20° C. in case of SkS1 or DdMD, respectively. Myosin and actin together with the indicated concentration of the inhibitor were pre-incubated for 5 minutes at room temperature and the measurements were initiated with 1 mM ATP. Data were corrected for background ATPase activity of actin. G-actin was prepared accordingly from rabbit skeletal muscle (Spudich, J. A. & Watt, S.; The Journal of Biological Chemistry 246, 1971, pp 4866-4871) and polymerized by 2 mM MgCl2 for 1 hour at room temperature. Measurements were performed in low salt buffer containing 5 mM HEPES, 2 mM MgCl2, 0.1 mM EGTA and 2 mM DTT at pH 7.2 or assay buffer containing 20 mM HEPES, 40 mM NaCl, 4 mM MgCl2 at pH 7.3 for basal ATPase activity measurements with DdMD.
# The basal and actin activated ATPase activities of rabbit skeletal muscle myosin S1 (SkS1) and Dictyostelium discoideum myosin 2 motor domain (DdMD) were measured at increasing concentrations of neurelaxin-A (FIGS. 3A and 3B).
structure (smiles),measurement,setting,value
"Cc1ccc2c(c1)C(=O)C1(O)CCN(c3ccc(N)cc3)C1=N2 (stereo not drawn) [Neurelaxin-A, 1-(4-aminophenyl)-3a-hydroxy-6-methyl-3,3a-dihydro-1H-pyrrolo[2,3-b]quinolin-4(2H)-one]",visible damage in zebrafish embryos,zebrafish embryos; 72 hours,does not cause any visible damage
same,signs of cytotoxicity in zebrafish embryos,"zebrafish embryos; after 40 hours, even at high concentrations",did not show any signs of cytotoxicity
same,relative migration of HeLa cells (100% = total diameter of the wound),HeLa cells,62.6±3.6%
same,cannabinoid-induced retraction of axonal growth cones,[1],significantly prevented
same,effect on cytokinesis / cell number,[2],completely inhibited cytokinesis
same,"maximal extent of inhibition, actin activated ATPase of SkS1",[3]; actin activated,98-100%
same,IC50,"[3]; actin activated, 50 nM SkS1, 45 μM actin, 25° C., read-out: IC50 actin activated ATPase activity of SkS1",470 ± 60 nM
same,"maximal extent of inhibition, basal ATPase of SkS1",[3]; basal,98-100%
same,IC50,"[3]; basal, 500 nM SkS1, 25° C., read-out: IC50 basal ATPase of SkS1",1300 ± 100 nM
